Data on one molecule can be found in paper PMC12455390, “Three Is Better than One: A Multimetal Complex that Triggers Immunogenic Cell Death” (Angewandte Chemie (International Ed. in English), 2025).

One data set deals with CT26 challenge model. Briefly: In vivo CT26 vaccination/challenge model. Also noted: species or system BALB/c mice. The note with it: mice vaccinated with CT26 cells pretreated 24 h at IC50, challenged after 7 days. As to the method: Induction of an immunogenic response in vivo was determined using the established preclinical CT26 challenge model depicted in Figure 8a.^[ [33] ^] […] After 7 days, the mice were challenged with 5 x 10^5 naive CT26 cells injected into the left flank (challenge flank). Mice were monitored thereafter to assess the level, if any, of tumor development on the challenge (left) side. Monitoring was continued for 28 days. […] These are animals in which ICD induction was not expected. Tumor free survival was seen up to day 14 and up to day 21 in the doxorubicin and 1 + Oxa + 2 groups, respectively.
After 7 days, mice were inoculated s.c. with 5 x 10^5 naive CT26 cancer cells into the contralateral flank. Prior to all injections, the supernatant of one flask per harvest day was tested for mycoplasma contamination (MycoAlert™, Lonza, Rockland, ME), which yielded negative results on all days. Body weights and tumor measurements were checked daily, and tumor development was compared among groups.

Data set [1] relates to CT26 colorectal cancer model. The note with it: CT26 tumors in BALB/c mice, i.p. on days 8, 10, 12 & 14, day 16, doxorubicin 2 mg/kg, mixture 5.7 + 4 + 12 mg/kg, complex 5 21 mg/kg. The protocol:
The experimental protocol consisted of inoculating mice with 1.5 x 10^6 CT26 cells on day 0. When the tumors became palpable, a series of four intraperitoneal (i.p.) injections were carried out on days 8, 10, 12, & 14. On day 16 mice (n = 5) were euthanized and organs including tumors (Figure S37) were collected and analyzed for their metal content via ICP‐MS (Figure 6a). The doxorubicin dosage was based on a previous report.^[ [32] ^]
Procedures were conducted in accordance with the Guide for the Care and Use of Laboratory Animals (U.S. Public Health Service, National Institute of Health) and the protocol for this experiment was approved by the Institutional Animal Care and Use Committee (IACUC, protocol numbers AUP-2022-00101 & AUP-2024-00337) at The University of Texas at Austin. Briefly, 6-8 weeks female BALB/c mice were acclimatized for 7 days thereafter, murine colon carcinoma cells, CT26 (1.5 x 10^6 cells in 100 μL of sterile PBS) were subcutaneously injected to the right flank. The experiments were initiated once tumors became palpable on Day 8. […] The animals were monitored for the development of pain or distress symptoms with the body weight and tumor size also being closely monitored. […] On day 16, mice were euthanized, and tumor and organs (liver, kidney, spleen, heart and lungs) were collected for ICP-MS metal quantification.

Another data set deals with white blood cells. Briefly: Total and differential WBC manual count in challenge study. The format is in vivo, BALB/c mice. The note with it: mice injected with pretreated CT26 cells. From the text:
To test this proposition, whole blood samples were collected from mice before vaccination (day ‐7), before challenge (day 0), and 7 days after challenge (day 7) as outlined in Figure 8a. The samples were subjected to a manual count of total white blood cell (WBC) using Tuerk staining and differential leukocytes (monocytes, lymphocytes, neutrophils, eosinophils, and basophils) using Wright staining (see Supporting Information). The results are summarized in Figure 8c as total WBC per µL (Figure 8c), differential percentages of monocytes (Figure 8d), and lymphocytes (Figure 8e) corresponding to an innate and adaptive immune response, respectively. The neutrophil, eosinophil, and basophil levels remained unchanged. […]
Blood samples were collected from all mice groups by tail vein and were analyzed for total WBC count and differential count.^9 Blood was draw on Day -7 (before vaccination), Day 0 (before rechallenge) and Day 7. Total WBC was analyzed by adding 2 µL of blood to 38 µL Tuerk solution (Sigma-Aldrich product - 93770) and was counted using a hemocytometer after 45 min under a 10x light microscope. […] 200 WBC cells were counted and classified under 1000x magnification using a Leica DMI6000b microscope.

The structures appear in SMILES notation. Like-named read-outs stand apart in the source and are kept apart here.

In the case of `COc1cccc2c1C(=O)c1c(O)c3c(c(O)c1C2=O)C[C@@](O)(C(=O)CO)C[C@@H]3O[C@H]1C[C@H](N)[C@H](O)[C@H](C)O1` [Doxorubicin, doxorubicin, reference compound], in the data set on CT26 challenge model, the “tumor free survival up to day” value was not above 14 days. In addition, the “Inhibition of Tumor Growth” value in data set [1] is on record as 40.8%; in data set [1] (listed as doxorubicin), approximately 40%. Also, in the data set on white blood cells (day 0, trends retained through day 7), the “total WBC count” value is “significant reduction in total WBC count”. Further, the “differential monocyte and lymphocyte percentages” value in the data set on white blood cells (days 0 and 7) is reported as “transient increase in lymphocyte percentages”.
